# Tests used:
# MetQ [1] = target: T1, MetQ (Streptococcus pneumoniae, UniProt A0A0H2ZPC6); assay: tryptophan fluorescence spectroscopy titration; format: binding
# T1 construct: gene SPD_0151; His6-MetQ (Sp_0149) without the predicted N-terminal signal peptide, ligand free, cloned from strain D39
# MetQ [2] = target: T1, MetQ; assay: isothermal titration calorimetry (also tryptophan fluorescence, KD […]); format: binding
# T1 sequence (A0A0H2ZPC6 entry or part of it): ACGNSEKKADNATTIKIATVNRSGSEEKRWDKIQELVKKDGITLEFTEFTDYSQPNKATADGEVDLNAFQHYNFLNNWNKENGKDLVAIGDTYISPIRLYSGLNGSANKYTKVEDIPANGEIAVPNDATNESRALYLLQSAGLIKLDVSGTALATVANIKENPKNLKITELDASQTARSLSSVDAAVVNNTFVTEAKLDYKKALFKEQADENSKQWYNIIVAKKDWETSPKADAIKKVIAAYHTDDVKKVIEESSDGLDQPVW
Structure (SMILES),Kd (MetQ [1]) [µM],Kd (MetQ [2]) [µM]
NC(CCS)C(=O)O (racemic) [DL-homocysteine],7 ± 0.26,
CSCCC(C)(N)C(=O)O (racemic) [α-methyl-DL-methionine],30.1 ± 0.86,
CSCC[C@@H](N)C(=O)O [D-methionine],27.4 ± 0.96,
CSCC[C@H](N)C(=O)O [L-methionine],,0.0266 ± 0.00128

# From PMC3551916, “The Effects of Methionine Acquisition and Synthesis on Streptococcus Pneumoniae Growth and Virulence” (PLoS ONE, 2013)
